According to PMC9963373, “Rationalizing the Binding Modes of PET Radiotracers Targeting the Norepinephrine Transporter” (Pharmaceutics, 2023):

Key:
[1] = biological target: T1, NET (Homo sapiens, UniProt P23975); experiment: Competitive cellular uptake assay against [3H]NE uptake in SK-N-SH cells
Description: It should be noted that the NET affinities of the tested compounds are expressed as IC50 in the current manuscript instead of the dissociation constant Kd. First, because all the tested compounds are substrates of NET that can be transported, they share the same binding site. […] Therefore, the IC50 value in the current study is considered equal to Kd without additional correction.
Competitive Cellular Uptake Studies
were cultivated according to the instructions from the supplier (Sigma-Aldrich Chemie GmbH,
Munich, Germany). One day before the competitive assay, the cells were seeded in 24-well plates
at a density of 1 × 10^5 cells/well and incubated in 0.5 mL of Eagle’s minimum essential medium
(EMEM) at 37 °C overnight. The medium was removed, and the cells were washed with 0.5 mL of
Dulbecco’s modified Eagle’s medium (DMEM) with low glucose containing 0.1% bovine serum
albumin (BSA). After washing, DMEM/0.1% BSA (300 µL) was added along with 50 µL of pargyline
presence of pyrogallol (20 µM final concentration, catechol-O-methyl transferase inhibitor) [1] and
pargyline (100 µM final concentration, monoamine oxidase inhibitor) [2], 50 µL of working solution
GBq/mmol, NET678250UC, PerkinElmer LAS GmbH, Germany) in DMEM/0.1% BSA together with
50 µL of the test compounds (desipramine, MIBG, HED and cold re ferences, each at different
incubation volume. The addition of the inhibitors of both enzymes involved in the natural
time. The plates were incubated at 37°C for 60 min. The cells were then washed with ice-cold PBS
(2 × 0.5 mL) followed by the addition of NaOH solution (0.1 N, 500 μL) and collection of the cell
lysates. Cell lysates (140 µL) were mixed with 1.8 mL of scintillation cocktail (Hionic-Fluor,
PerkinElmer, Rodgau, Germany) and radioactivity was measured in a liquid scintillation analyzer
All experimental data are presented as mean
± SD, with individual numbers measured in triplicate in experiment performed on 2–3 separate

[2] = Rat biodistribution study, heart-to-blood ratio of fluorine-18-labeled tracers; type: in vivo; conditions: male Wistar rats, 10 min after tail vein administration of fluorine-18-labeled tracer (1-2 MBq), n = 3-6
Description: (§1) The experimental protocols were approved by the Animal Ethics Committee of the National Cerebral and Cardiovascular Center, Research Institute, Osaka, Japan (approval number 18019) and conducted in strict accordance with the Guide for the Care and Use of Laboratory Animals published by the US National Institutes of Health and the ARRIVE guidelines. Anesthesia was induced in male Wistar rats (n = 3–6 for each radiotracer, weighing 200–250 g on average, Charles River Laboratories, Research Models and Services, Germany GmbH, Sulzfeld, Germany) by using 5% isoflurane and maintained during the whole experiment with 2% isoflurane. Large animal PET imaging was performed on rhesus macaques (n = 2, weighing 3.9–4.2 kg, Primate Research Institute Kyoto University, Aichi, Japan). The induction of anesthesia in non-human primates (NHPs) was conducted by intramuscular injection of ketamine (1.5 mg/kg) and xylazine (0.6 mg/kg) to allow animal preparation and handling. After a tracheal cannula was inserted, 1.5% sevoflurane (SEVOFLURANE Inhalation Solution, Pfizer Japan Inc., Tokyo, Japan) vaporized with 100% oxygen was inhaled, and the tidal volume and respiratory rate of the ventilator were monitored and maintained in the normal range throughout the imaging sessions with an anesthesia workstation (Apollo®, Drägerwerk AG & Co. KGaA, Lübeck, Germany).
(§2) Preliminary PET imaging of [^18F]AF78(F) in rodents (n = 2) and NHPs (n = 2) was obtained according to a previously described protocol. For the rat biodistribution studies (n = 3–6 for each tracer), radiotracers (1–2 MBq) were administered via the tail vein. Ten minutes after radiotracer administration, the animals were euthanized. The organs of interest were harvested for tissue counting with a γ-counter (2480 Automatic Gamma Counter WIZARD^2, PerkinElmer LAS GmbH, Rodgau, Germany). Following weight and decay correction of the tissue counts, the heart-to-blood (H/B) ratios were calculated. A detailed experimental description can be found in the Supplementary Material. […]
PET Imaging and Biodistribution Study […]
Barbara, CA, US). For the rat biodistribution studies, radiotracers (1–2 MBq) were administered via the tail vein. Ten minutes after radiotracer administration, the animals were euthanized. The organs of interest were harvested for tissue counting with a γ-counter (2480 Automatic Gamma Counter WIZARD2, PerkinElmer, Rodgau, Germany). Following weight and decay correction of the tissue counts, the heart-to-blood ratios were calculated. NHPs (n = 2) were anesthetized during the imaging study and studied on a clinical PET scanner (PCA-2000A, Toshiba Medical Systems Corporation, Tochigi, Japan). After a 5 min transmission scan and an intravenous injection of the […]
and 300 s × 11) was started. […]

[3] = tested on: NET; experiment: PET imaging in non-human primates with and without desipramine blockade; type: in vivo, rhesus macaques; conditions: NHPs, n = 2; specificity proven by desipramine 1 mg/kg i.v. 10 min before tracer
Description: as §1, with “Large animal PET imaging was performed on rhesus macaques (n = 2, weighing 3.9–4.2 kg, Primate Research Institute Kyoto University, Aichi, Japan). The induction of anesthesia in non-human primates (NHPs) was conducted by intramuscular injection of ketamine (1.5 mg/kg) and xylazine (0.6 mg/kg) to allow animal preparation and handling.” left out
Preliminary PET imaging of [^18F]AF78(F) in rodents (n = 2) and NHPs (n = 2) was obtained according to a previously described protocol. […] Following weight and decay correction of the tissue counts, the heart-to-blood (H/B) ratios were calculated. […]

[4] = PET/CT imaging in healthy rats; type: in vivo; conditions: n = 2, 10-20 MBq via tail vein
Protocol: as §2
days. IC50 values were determined using nonlinear regression log(inhibitor) vs. normalized response in GraphPad Prism 8.4.3.
PET Imaging and Biodistribution Study
PET imaging of [18F]AF78(F) in rodents (n = 2) was obtained using a dedicated small animal PET system (microPET Focus 120, Siemens, Germany). […]
initiated with acquisition in list-mode format. […] Following weight and decay correction of the tissue counts, the heart-to-blood ratios were calculated. […]
injected 10 min before tracer administration, after which the PET scan started immediately. […] The obtained PET images were analyzed with the public domain tool AMIDE imaging software (A Medical Imaging Data Examiner, version 1.01).

[5] = biological target: T1, NET; parameters: Human neuroblastoma cell line SK-N-SH from metastatic bone marrow stably expressing NET; host or cells: SK-N-SH human neuroblastoma cells; method as in PMID 23306137; conditions: NE-NET; read-out: Michaelis constant Km; cited from earlier work

T1 sequence (P23975 whole entry): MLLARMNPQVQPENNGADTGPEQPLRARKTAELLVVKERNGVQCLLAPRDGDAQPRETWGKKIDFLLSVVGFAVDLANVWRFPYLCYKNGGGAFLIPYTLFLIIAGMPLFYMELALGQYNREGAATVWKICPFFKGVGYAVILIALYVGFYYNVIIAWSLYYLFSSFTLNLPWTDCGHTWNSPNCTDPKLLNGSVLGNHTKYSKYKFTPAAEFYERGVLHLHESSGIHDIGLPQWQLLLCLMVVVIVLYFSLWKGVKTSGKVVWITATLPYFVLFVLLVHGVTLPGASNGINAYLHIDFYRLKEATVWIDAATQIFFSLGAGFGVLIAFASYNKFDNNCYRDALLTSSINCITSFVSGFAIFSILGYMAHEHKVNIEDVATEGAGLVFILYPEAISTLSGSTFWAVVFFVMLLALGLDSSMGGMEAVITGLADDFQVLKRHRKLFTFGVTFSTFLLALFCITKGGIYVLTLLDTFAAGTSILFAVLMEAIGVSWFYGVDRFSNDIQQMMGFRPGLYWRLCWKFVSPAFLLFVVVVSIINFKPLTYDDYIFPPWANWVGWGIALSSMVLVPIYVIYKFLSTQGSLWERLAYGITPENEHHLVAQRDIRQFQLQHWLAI

Row | SMILES | IC50 [1] [µM] | heart-to-blood (H/B) ratio [2] | other results
1 | N=C(N)NCCc1ccc(OCCCF)c(I)c1 [AF78(I)] | 6.51 ± 3.32 | 5.9 ± 0.4 | fold less potent than AF78(F) ([1]; ratio of NET affinities in the competitive cellular uptake assay): 15 fold
2 | N=C(N)NCCc1ccc(OCCCF)c(O)c1 [AF78(OH)] | 22.7 ± 3.58 |  | 
3 | N=C(N)NCCc1ccc(OCCCF)cc1 [AF78(H)] | 4.17 ± 0.92 |  | 
4 | N=C(N)NCCc1ccc(OCCCF)c(Br)c1 [AF78(Br)] | 3.32 ± 0.72 | 8.7 ± 1.4 | 
5 | N=C(N)NCCc1ccc(OCCCF)c(F)c1 [AF78(F)] |  | 13.2 ± 1.2 | uptake in the heart (PET) [3]: distinct NET-mediated uptake in the heart; systemic distribution of the radiotracer (PET/CT) [4]: homogenous distribution throughout the left ventricular wall
6 | NC[C@H](O)c1ccc(O)c(O)c1 [NE, norepinephrine] |  |  | Km [5]: 0.28 ± 0.03 µM
7 | N=C(N)NCCc1ccc(OCCCF)c(Cl)c1 [AF78(Cl)] | 0.94 ± 0.28 | 10.4 ± 0.4 | 
